Measured values from the supplement of paper PMC10307832.

Compound: COc1nc(N)nc2c1ncn2[C@@H]1O[C@H](CO)[C@@H](O)[C@@H]1O [Nelarabine] + Cc1nc(Nc2ncc(C(=O)Nc3c(C)cccc3Cl)s2)cc(N2CCN(CCO)CC2)n1 [Dasatinib] (partner 0.075 µM)
Assay: relative viability (nuclei count vs DMSO), 5 days (fraction); higher = more cells survive
Conditions: first compound 0.01 µM
In short: (§1)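 One day after seeding in 1536-well plates, lung cancer cell lines were dosed by pin tool. Dosing was either single-drug or a fixed anchor-drug dose plus five library-drug doses (not always all listed) in √10 steps. After 5 days, nuclei were stained in one fix-and-stain step and counted on 4× images, and relative viability is the nuclei count of treated wells over that of vehicle wells, given as the median of duplicate plates.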

In order of rising relative viability:
1. SK-LU-1  0.179
2. NCI-H2405  0.208
3. NCI-H2085  0.231
4. PC-14  0.253
5. NCI-H2347  0.328
6. NCI-H2009  0.348
7. NCI-H1975  0.431
8. NCI-H1993  0.692
9. NCI-H2126  0.701
10. NCI-H2228  0.725
11. RERF-LC-KJ  0.824
12. NCI-H2023  0.825
13. PC-3 [JPC-3]  1.03
14. NCI-H3122  1.08
15. NCI-H2087  1.14

Same assay, conditions: first compound 0.03162 µM

In order of falling relative viability:
1. PC-3 [JPC-3]  1.01
2. NCI-H661  0.913
3. RERF-LC-KJ  0.884
4. NCI-H1666  0.855
5. NCI-H23  0.838
6. NCI-H2087  0.718
7. NCI-H3122  0.661
8. NCI-H460  0.601
9. NCI-H2023  0.59
10. NCI-H1355  0.573
11. NCI-H596  0.571
12. NCI-H2126  0.55
13. NCI-H441  0.516
14. NCI-H1993  0.505
15. NCI-H2228  0.481
16. NCI-H650  0.48
17. NCI-H1437  0.468
18. NCI-H1734  0.411
19. NCI-H1651  0.372
20. NCI-H1915  0.36
21. NCI-H1755  0.349
22. NCI-H1975  0.343
23. NCI-H1650  0.329
24. NCI-H2347  0.306
25. NCI-H2009  0.288
26. NCI-H2085  0.26
27. NCI-H322M  0.252
28. NCI-H647  0.252
29. NCI-H2405  0.244
30. PC-14  0.233
31. NCI-H520  0.22
32. LXF-289  0.218
33. NCI-H838  0.217
34. SK-LU-1  0.105

Same assay, conditions: first compound 0.1 µM

In order of falling relative viability:
1. NCI-H661  0.953
2. PC-3 [JPC-3]  0.938
3. NCI-H1666  0.719
4. RERF-LC-KJ  0.716
5. NCI-H23  0.588
6. NCI-H1355  0.564
7. NCI-H1993  0.553
8. NCI-H2087  0.526
9. NCI-H596  0.488
10. NCI-H460  0.452
11. NCI-H441  0.43
12. NCI-H2126  0.43
13. NCI-H1734  0.418
14. NCI-H650  0.417
15. NCI-H1651  0.387
16. NCI-H2023  0.382
17. NCI-H1975  0.316
18. NCI-H1437  0.304
19. NCI-H1915  0.281
20. NCI-H1650  0.27
21. NCI-H2347  0.252
22. NCI-H2405  0.233
23. NCI-H322M  0.231
24. NCI-H838  0.225
25. NCI-H520  0.2
26. NCI-H2009  0.2
27. NCI-H2085  0.177
28. LXF-289  0.146
29. SK-LU-1  0.142
30. NCI-H647  0.136
31. NCI-H1755  0.135
32. PC-14  0.131

Same assay, conditions: first compound 0.3162 µM

In order of falling relative viability:
1. PC-3 [JPC-3]  1.04
2. NCI-H2087  0.981
3. NCI-H661  0.934
4. NCI-H23  0.927
5. NCI-H1666  0.878
6. NCI-H3122  0.81
7. RERF-LC-KJ  0.808
8. NCI-H1355  0.744
9. NCI-H2126  0.692
10. NCI-H1993  0.665
11. NCI-H460  0.64
12. NCI-H2228  0.629
13. NCI-H2023  0.62
14. NCI-H441  0.596
15. NCI-H596  0.581
16. NCI-H1734  0.527
17. NCI-H650  0.51
18. NCI-H1755  0.506
19. NCI-H1437  0.466
20. NCI-H1975  0.434
21. NCI-H1651  0.355
22. NCI-H838  0.321
23. NCI-H2009  0.307
24. NCI-H1650  0.305
25. PC-14  0.304
26. NCI-H1915  0.296
27. NCI-H2347  0.289
28. NCI-H322M  0.273
29. NCI-H520  0.214
30. NCI-H2405  0.21
31. LXF-289  0.202
32. NCI-H2085  0.192
33. NCI-H647  0.183
34. SK-LU-1  0.171

Same assay, conditions: first compound 1 µM

In order of falling relative viability:
1. NCI-H2087  1.09
2. PC-3 [JPC-3]  0.97
3. NCI-H3122  0.948
4. NCI-H1666  0.934
5. NCI-H661  0.853
6. NCI-H23  0.819
7. NCI-H441  0.784
8. RERF-LC-KJ  0.761
9. NCI-H1355  0.706
10. NCI-H596  0.666
11. NCI-H2023  0.66
12. NCI-H2126  0.639
13. NCI-H1993  0.635
14. NCI-H2228  0.559
15. NCI-H1734  0.532
16. NCI-H460  0.495
17. NCI-H1755  0.479
18. NCI-H650  0.468
19. NCI-H1975  0.462
20. NCI-H838  0.374
21. NCI-H1651  0.368
22. NCI-H1915  0.364
23. NCI-H1437  0.362
24. NCI-H1650  0.329
25. NCI-H2009  0.315
26. PC-14  0.315
27. NCI-H2347  0.308
28. NCI-H647  0.261
29. NCI-H322M  0.246
30. NCI-H2405  0.229
31. NCI-H520  0.207
32. NCI-H2085  0.199
33. LXF-289  0.196
34. SK-LU-1  0.165

Compound: COc1nc(N)nc2c1ncn2[C@@H]1O[C@H](CO)[C@@H](O)[C@@H]1O [Nelarabine] + O=C(CCCCCCC(=O)Nc1ccccc1)NO [Vorinostat] (partner 1 µM)
Assay: as above
Conditions: first compound 0.01 µM
In short: as §1

In order of falling relative viability:
1. NCI-H460  1.42
2. NCI-H322M  0.942
3. NCI-H520  0.905
4. NCI-H661  0.862
5. LXF-289  0.84
6. NCI-H647  0.764
7. NCI-H441  0.749
8. NCI-H23  0.737
9. NCI-H596  0.546
10. NCI-H650  0.415
